Measured values taken from patent US8575091B1, “Amylin analogues and pharmaceutical compositions thereof” (Novo Nordisk A/S, priority 2012, dated 2013).
Read-outs that look alike come from different tables or passages of the source. Numbered stars: 1 amine (or outer) side, 2 acyl side, 3 side chain; on linkers, the order of the positions; unused ones are H or OH. Bridge positions count the residues as written; N and C are the ends. Peptide text beside a SMILES is read from it. * marks the point of attachment. C20 diacid = O=C(O)CCCCCCCCCCCCCCCCCCC(=O)*; γGlu = O=C(O)[C@H](CCC(=O)[*:2])N[*:1]

What was measured:
[1] = target: T1, human amylin receptor (amylin 3(a) receptor: human calcitonin receptor + RAMP-3) (Homo sapiens, UniProt O60896+P30988); experiment: Assay (II)a functional assay, human amylin receptor (CRE luciferase, BHK cells); format: cell-based; conditions: for EC50: read-out: hAmylin-R funct. EC50
T1 construct: expressed in transfected cells
T1 sequence (P30988 25-474): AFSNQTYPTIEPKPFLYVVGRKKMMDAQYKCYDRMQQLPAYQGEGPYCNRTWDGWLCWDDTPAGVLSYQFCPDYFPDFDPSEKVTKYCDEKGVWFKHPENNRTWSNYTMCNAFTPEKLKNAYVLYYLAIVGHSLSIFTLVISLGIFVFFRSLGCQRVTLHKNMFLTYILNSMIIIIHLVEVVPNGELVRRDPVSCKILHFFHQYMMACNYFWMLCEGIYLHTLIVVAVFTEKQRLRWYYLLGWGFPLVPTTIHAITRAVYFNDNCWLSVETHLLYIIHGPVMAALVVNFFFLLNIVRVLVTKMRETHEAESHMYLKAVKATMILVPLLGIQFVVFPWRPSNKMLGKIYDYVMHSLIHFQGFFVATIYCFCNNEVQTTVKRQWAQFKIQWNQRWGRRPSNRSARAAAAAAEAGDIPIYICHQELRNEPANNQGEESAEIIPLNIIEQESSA
T1 sequence (O60896 24-148 partner): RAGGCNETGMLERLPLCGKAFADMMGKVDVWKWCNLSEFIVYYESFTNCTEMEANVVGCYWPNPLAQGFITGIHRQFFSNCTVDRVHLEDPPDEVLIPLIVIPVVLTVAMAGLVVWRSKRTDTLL

human amylin receptor = target: T2, human amylin receptor (Homo sapiens, UniProt O60896+P30988); experiment: Assay (V) binding to the human amylin receptor (SPA, 125I-rat amylin); conditions: for IC50: human amylin receptor membranes, SPA, read-out: hAmylin-R bind IC50; for Ratio hCT/hAmylin binding: human binding ratio, included for comparison
T2 construct: expressed in transfected cells
T2 sequence (P30988 25-474): T1 sequence (P30988 25-474)
T2 sequence (O60896 24-148 partner): T1 sequence (O60896 24-148 partner)
Outline: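 SPA competition binding on membranes from Amylin 3(a)/CRE-luc cells, 35 ng/μL membranes with 0.05 mg/well beads. Buffer 50 mM Hepes pH 7.4, 1 mM CaCl2, 5 mM MgCl2, 0.1% OA, 0.02% Tween20. IC50 from one-site competition fit as affinity measure.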

[2] = target: T3, human calcitonin receptor (Homo sapiens, UniProt P30988); experiment: Assay (II)a functional assay, human calcitonin receptor (CRE luciferase, BHK cells);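 also: luminescence from a CRE-driven luciferase reporter, read by single photon counting after cells were exposed to test samples for 3 h at 37 °C under 5% CO2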; format: cell-based; conditions: read-out: hCTR funct. EC50
T3 construct: expressed in transfected cells
T3 sequence (P30988 25-474): T1 sequence (P30988 25-474)

[3] = target: T3, human calcitonin receptor; experiment: Assay (VII) binding to the human calcitonin receptor (SPA, 125I-Calcitonin); conditions: read-out: hCTR bind IC50;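 also: cell membranes coupled to SPA beads, competitive displacement read by scintillation counting, IC50 derived from a one-site competition fit as a measure of receptor affinity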
[4] = Table 6, human functional selectivity (hCTR EC50 / hAmylin-R EC50)
[5] = Table 6a, human functional selectivity (hCTR EC50 / hAmylin-R EC50), at least 5
[6] = Table 6i, hCTR funct. EC50 / hAmylin-R funct. EC50
[7] = Table 6i, human amylin receptor functional
[8] = Table 6j, hCTR funct. EC50 / hAmylin-R funct. EC50
[9] = functional assay, human amylin receptor

| SMILES | Ratio hCT/hAmylin funct. [1, 4] | Ratio hCT/hAmylin funct. [1, 5] | Ratio hCT/hAmylin funct. [1, 6] | EC50 [1, 7] [nM] | Ratio hCT/hAmylin funct. [1, 8] | IC50 (human amylin receptor) [nM] | Ratio hCT/hAmylin binding (human amylin receptor) | EC50 [2] [nM] | IC50 [3] [nM] | EC50 [1, 9] [nM] | Ratio hCT/hAmylin funct. ([1]; Table 6k, hCTR funct. EC50 / hAmylin-R funct. EC50) | EC50 ([1]; Table 6j, human amylin receptor functional) [nM] |
| --- | --- | --- | --- | --- | --- | --- | --- | --- | --- | --- | --- | --- |
| CC[C@H](C)[C@H](NC(=O)[C@H](C)NC(=O)CNC(=O)[C@H](Cc1ccccc1)NC(=O)[C@H](CC(N)=O)NC(=O)[C@@H]1CCCN1C(=O)[C@H](CO)NC(=O)[C@H](CO)NC(=O)[C@H](Cc1c[nH]cn1)NC(=O)[C@H](CCCNC(=N)N)NC(=O)[C@H](CC(C)C)NC(=O)[C@H](Cc1ccccc1)NC(=O)[C@H](CCC(=O)O)NC(=O)[C@H](C)NC(=O)[C@H](CC(C)C)NC(=O)[C@H](CCCNC(=N)N)NC(=O)[C@H](CCC(N)=O)NC(=O)[C@@H](NC(=O)[C@H](C)NC(=O)[C@@H]1CSSC[C@H](NC(=O)[C@H](CCCCN)NC(=O)CC[C@H](NC(=O)CCCCCCCCCCCCCCCCCCC(=O)O)C(=O)O)C(=O)N[C@@H](CC(N)=O)C(=O)N[C@@H]([C@@H](C)O)C(=O)N[C@@H](C)C(=O)N[C@@H]([C@@H](C)O)C(=O)N1)[C@@H](C)O)C(=O)N1CCC[C@H]1C(=O)N[C@@H](CO)C(=O)N[C@@H](CO)C(=O)N[C@H](C(=O)N[C@@H](CC(N)=O)C(=O)N[C@H](C(=O)NCC(=O)N[C@@H](CO)C(=O)N[C@@H](CC(N)=O)C(=O)N[C@H](C(=O)N[C@@H](Cc1ccc(O)cc1)C(N)=O)[C@@H](C)O)C(C)C)[C@@H](C)O [Example 9] | 7.4 | 7.4 | 7.4 | 0.175 | 7.4 | 0.143 | 8.0 | 1.29 | 1.14 |  |  |  |
| CC[C@H](C)[C@H](NC(=O)[C@H](C)NC(=O)CNC(=O)[C@H](Cc1ccccc1)NC(=O)[C@H](CC(N)=O)NC(=O)[C@@H]1CCCN1C(=O)[C@H](CO)NC(=O)[C@H](CO)NC(=O)[C@H](Cc1c[nH]cn1)NC(=O)[C@H](CCCNC(=N)N)NC(=O)[C@H](CC(C)C)NC(=O)[C@H](Cc1ccccc1)NC(=O)[C@H](CCC(=O)O)NC(=O)[C@H](C)NC(=O)[C@H](CC(C)C)NC(=O)[C@H](CCCNC(=N)N)NC(=O)[C@H](CCC(N)=O)NC(=O)[C@@H](NC(=O)[C@H](C)NC(=O)[C@@H]1CSSC[C@H](NC(=O)[C@H](CCCCN)NC(=O)CC[C@H](NC(=O)CC[C@H](NC(=O)CCCCCCCCCCCCCCCCCCC(=O)O)C(=O)O)C(=O)O)C(=O)N[C@@H](CC(N)=O)C(=O)N[C@@H]([C@@H](C)O)C(=O)N[C@@H](C)C(=O)N[C@@H]([C@@H](C)O)C(=O)N1)[C@@H](C)O)C(=O)N1CCC[C@H]1C(=O)N[C@@H](CO)C(=O)N[C@@H](CO)C(=O)N[C@H](C(=O)N[C@@H](CC(N)=O)C(=O)N[C@H](C(=O)NCC(=O)N[C@@H](CO)C(=O)N[C@@H](CC(N)=O)C(=O)N[C@H](C(=O)N1CCC[C@H]1C(N)=O)[C@@H](C)O)C(C)C)[C@@H](C)O [Example 14] ({C20 diacid-γGlu-γGlu}-KCNTATCATQRLAEFLRHSSPNFGAIPSSTNVGSNTP-NH2; disulfide 2-7) | 1.6 |  |  |  |  | 0.196 | 2.2 | 0.238 | 0.432 | 0.146 |  |  |
| CC[C@H](C)[C@H](NC(=O)[C@H](C)NC(=O)CNC(=O)[C@H](Cc1ccccc1)NC(=O)[C@H](CC(N)=O)NC(=O)[C@@H]1CCCN1C(=O)[C@H](CO)NC(=O)[C@H](CO)NC(=O)[C@H](Cc1c[nH]cn1)NC(=O)[C@H](CCCNC(=N)N)NC(=O)[C@H](CC(C)C)NC(=O)[C@H](Cc1ccccc1)NC(=O)[C@H](CCC(=O)O)NC(=O)[C@H](C)NC(=O)[C@H](CC(C)C)NC(=O)[C@H](CCCNC(=N)N)NC(=O)[C@H](CCC(N)=O)NC(=O)[C@@H](NC(=O)[C@H](C)NC(=O)[C@@H]1CSSC[C@H](NC(=O)[C@H](CCCCN)NC(=O)CC[C@H](NC(=O)CCCCCCCCCCCCCCCCCCC(=O)O)C(=O)O)C(=O)N[C@@H](CC(N)=O)C(=O)N[C@@H]([C@@H](C)O)C(=O)N[C@@H](C)C(=O)N[C@@H]([C@@H](C)O)C(=O)N1)[C@@H](C)O)C(=O)N1CCC[C@H]1C(=O)N[C@@H](CO)C(=O)N[C@@H](CO)C(=O)N[C@H](C(=O)N[C@@H](CC(N)=O)C(=O)N[C@H](C(=O)NCC(=O)N[C@@H](CO)C(=O)N[C@@H](CCCNC(=N)N)C(=O)N[C@H](C(=O)N[C@@H](Cc1ccc(O)cc1)C(N)=O)[C@@H](C)O)C(C)C)[C@@H](C)O [Example 16] ({C20 diacid-γGlu}-KCNTATCATQRLAEFLRHSSPNFGAIPSSTNVGSRTY-NH2; disulfide 2-7) | 6.1 | 6.1 | 6.1 | 0.363 | 6.1 | 0.894 |  | 2.21 | 17.1 |  | 6.1 |  |
| CC[C@H](C)[C@H](NC(=O)[C@H](C)NC(=O)CNC(=O)[C@H](Cc1ccccc1)NC(=O)[C@H](CC(N)=O)NC(=O)[C@@H]1CCCN1C(=O)[C@H](CO)NC(=O)[C@H](CO)NC(=O)[C@H](Cc1c[nH]cn1)NC(=O)[C@H](CCCNC(=N)N)NC(=O)[C@H](CC(C)C)NC(=O)[C@H](Cc1ccccc1)NC(=O)[C@H](CCC(=O)O)NC(=O)[C@H](C)NC(=O)[C@H](CC(C)C)NC(=O)[C@H](CCCNC(=N)N)NC(=O)[C@H](CCC(N)=O)NC(=O)[C@@H](NC(=O)[C@H](C)NC(=O)[C@@H]1CSSC[C@H](NC(=O)[C@H](CCCCN)NC(=O)COCCOCCNC(=O)COCCOCCNC(=O)CC[C@H](NC(=O)CCCCCCCCCCCCCCCCCCC(=O)O)C(=O)O)C(=O)N[C@@H](CC(N)=O)C(=O)N[C@@H]([C@@H](C)O)C(=O)N[C@@H](C)C(=O)N[C@@H]([C@@H](C)O)C(=O)N1)[C@@H](C)O)C(=O)N1CCC[C@H]1C(=O)N[C@@H](CO)C(=O)N[C@@H](CO)C(=O)N[C@H](C(=O)N[C@@H](CC(N)=O)C(=O)N[C@H](C(=O)NCC(=O)N[C@@H](CO)C(=O)N[C@@H](CC(N)=O)C(=O)N[C@H](C(=O)N[C@@H](Cc1ccc(O)cc1)C(N)=O)[C@@H](C)O)C(C)C)[C@@H](C)O [Example 19] |  |  |  |  |  | 0.556 |  | 5.32 | 20.4 | 0.307 |  |  |
| CC[C@H](C)[C@H](NC(=O)[C@H](C)NC(=O)CNC(=O)[C@H](Cc1ccccc1)NC(=O)[C@H](CC(N)=O)NC(=O)[C@@H]1CCCN1C(=O)[C@H](CO)NC(=O)[C@H](CO)NC(=O)[C@H](Cc1c[nH]cn1)NC(=O)[C@H](CCCNC(=N)N)NC(=O)[C@H](CC(C)C)NC(=O)[C@H](Cc1ccccc1)NC(=O)[C@H](CCC(=O)O)NC(=O)[C@H](C)NC(=O)[C@H](CC(C)C)NC(=O)[C@H](CCCNC(=N)N)NC(=O)[C@H](CCC(N)=O)NC(=O)[C@@H](NC(=O)[C@H](C)NC(=O)[C@@H]1CSSC[C@H](NC(=O)[C@H](CCCCN)NC(=O)CC[C@H](NC(=O)CCCCCCCCCCCCCCCCCCC(=O)O)C(=O)O)C(=O)N[C@@H](CC(N)=O)C(=O)N[C@@H]([C@@H](C)O)C(=O)N[C@@H](C)C(=O)N[C@@H]([C@@H](C)O)C(=O)N1)[C@@H](C)O)C(=O)N1CCC[C@H]1C(=O)N[C@@H](CO)C(=O)N[C@@H](CO)C(=O)N[C@H](C(=O)N[C@@H](CC(N)=O)C(=O)N[C@H](C(=O)NCC(=O)N[C@@H](CO)C(=O)N[C@@H](CCC(=O)O)C(=O)N[C@H](C(=O)N[C@@H](Cc1ccc(O)cc1)C(N)=O)[C@@H](C)O)C(C)C)[C@@H](C)O [Example 22] ({C20 diacid-γGlu}-KCNTATCATQRLAEFLRHSSPNFGAIPSSTNVGSETY-NH2; disulfide 2-7) | 3.8 |  |  |  |  | 0.794 |  | 1.03 | 9.73 | 0.27 |  |  |
| CC[C@H](C)[C@H](NC(=O)[C@H](C)NC(=O)CNC(=O)[C@H](Cc1ccccc1)NC(=O)[C@H](CC(N)=O)NC(=O)[C@@H]1CCCN1C(=O)[C@H](CO)NC(=O)[C@H](CO)NC(=O)[C@H](Cc1c[nH]cn1)NC(=O)[C@H](CCCNC(=N)N)NC(=O)[C@H](CC(C)C)NC(=O)[C@H](Cc1ccccc1)NC(=O)[C@H](Cc1c[nH]cn1)NC(=O)[C@H](C)NC(=O)[C@H](CC(C)C)NC(=O)[C@H](CCCNC(=N)N)NC(=O)[C@H](CCC(N)=O)NC(=O)[C@@H](NC(=O)[C@H](C)NC(=O)[C@@H]1CSSC[C@H](NC(=O)[C@@H](N)CCCCNC(=O)COCCOCCNC(=O)CCCCCCCCCCCCCCCCCCC(=O)O)C(=O)N[C@@H](CC(N)=O)C(=O)N[C@@H]([C@@H](C)O)C(=O)N[C@@H](C)C(=O)N[C@@H]([C@@H](C)O)C(=O)N1)[C@@H](C)O)C(=O)N1CCC[C@H]1C(=O)N[C@@H](CO)C(=O)N[C@@H](CO)C(=O)N[C@H](C(=O)N[C@@H](CC(N)=O)C(=O)N[C@H](C(=O)NCC(=O)N[C@@H](CO)C(=O)N[C@@H](CC(N)=O)C(=O)N[C@H](C(=O)N[C@@H](Cc1ccc(O)cc1)C(N)=O)[C@@H](C)O)C(C)C)[C@@H](C)O [Example 90] |  |  |  |  |  | 0.061 |  |  | 2.57 |  |  | 0.033 |
